Experimental data published in ChEMBL document CHEMBL1136094, “Novel, potent and selective cyclin D1/CDK4 inhibitors: indolo[6,7-a]pyrrolo[3,4-c]carbazoles” (Bioorg Med Chem Lett, 2003).
Values after ≈ are worked out from the molar mass of the structure shown.

What was measured:
[1] = target: cAMP-dependent protein kinase (PKA) (Homo sapiens, UniProt P22694+P17612+P22612); experiment: Inhibitory activity against Protein kinase A (Histone); format: protein assay
[2] = tested on: NCI-H460; experiment: In vitro antiproliferative activity against human carcinoma cell line H460 (lung); format: functional, cell-based
[3] = target: T1, Cyclin-dependent kinase 4/cyclin D1 (Homo sapiens, UniProt P11802); experiment: Inhibitory activity against Cyclin D1-cyclin-dependent kinase 4 in enzymatic assay by measuring phosphorylation of RbING; format: protein-complex assay
[4] = target: Cyclin-dependent kinase 4 (Homo sapiens) (UniProt P11802); experiment: Inhibition of Rb phosphorylation at the CDK4 specific Ser780 residue (3 fold increase over control) after 24 hr incubation in HCT116 cells; format: functional, cell-based; settings: HCT-116, concentration not given here
[5] = target: Cyclin-dependent kinase 4 (Homo sapiens) (UniProt P11802); experiment: Inhibition of Rb phosphorylation at the CDK4 specific Ser780 residue (1 fold increase over control) after 24 hr incubation in HCT116 cells; format: functional, cell-based; settings: HCT-116, concentration not given here
[6] = tested on: HCT-116; experiment: GI arrest (1 fold increase over control) in HCT116 cells was determined by flow cytometry after 24 hr incubation; format: functional, Homo sapiens
[7] = target: T1, Cyclin-dependent kinase 4/cyclin D1; experiment: Inhibitory activity against Cyclin D1-cyclin-dependent kinase 4 in enzymatic assay by measuring phosphorylation of Rb21; format: protein-complex assay
[8] = tested on: HCT-116; experiment: In vitro antiproliferative activity against human carcinoma cell line HCT116 (colon); format: functional, cell-based
[9] = tested on: HCT-116; experiment: GI arrest (3 fold increase over control) in HCT116 cells was determined by flow cytometry after 24 hr incubation; format: functional, Homo sapiens
[10] = target: CaM kinase II (Homo sapiens, UniProt Q13557+Q13555+Q13554+Q9UQM7); experiment: Inhibitory activity against Calcium/calmodulin-dependent protein kinase type II; format: protein assay
[11] = Aqueous solubility (in situ) in D5W after 1 week was determined; format: physicochemical; settings: for solubility at 168 h: D5W
[12] = target: Cyclin-dependent kinase 2/cyclin E (Homo sapiens, UniProt P24941); experiment: Inhibitory activity against Cyclin E-cyclin-dependent kinase 2 in enzymatic assay by measuring phosphorylation of RbING; format: protein-complex assay
[13] = tested on: HCT-116; experiment: Flow cytometry of HCT116 cells, G1 arrest (2.6 fold increase over control) after 24 hr r; format: functional, Homo sapiens
[14] = tested on: HCT-116; experiment: (§1) Flow cytometry of HCT116 cells, G1 arrest (3 fold increase over control) after 24 hr r; format: functional
[15] = target: Cyclin-dependent kinase 4 (Homo sapiens) (UniProt P11802); experiment: Inhibition of Cyclin-dependent kinase 4 specific Ser780 Rb phosphorylation, 3 fold increase over 24 hr incubation in HCT116 cells; format: functional, cell-based; settings: HCT-116; concentration not given here
[16] = target: Cyclin-dependent kinase 2/cyclin E1 (Homo sapiens, UniProt P24941); experiment: Inhibition of RbING phosphorylation by Cyclin E1-cyclin-dependent kinase 2; format: protein-complex assay
[17] = tested on: HCT-116; experiment: as §1; format: functional, Homo sapiens
[18] = tested on: HCT-116; experiment: Flow cytometry of HCT116 cells, G1 arrest (1 fold increase over control) after 24 hr r; format: functional, Homo sapiens
[19] = tested on: HCT-116; experiment: Flow cytometry of HCT116 cells, G1 arrest (fold increase over control) after 24 hr r incubation; format: functional, Homo sapiens
[20] = tested on: HCT-116; experiment: Flow cytometry of HCT116 cells, G1 arrest ( fold increase over control) after 24 hr r; format: functional, Homo sapiens

Cyclin-dependent kinase 4 (Homo sapiens), sequence (P11802 whole entry): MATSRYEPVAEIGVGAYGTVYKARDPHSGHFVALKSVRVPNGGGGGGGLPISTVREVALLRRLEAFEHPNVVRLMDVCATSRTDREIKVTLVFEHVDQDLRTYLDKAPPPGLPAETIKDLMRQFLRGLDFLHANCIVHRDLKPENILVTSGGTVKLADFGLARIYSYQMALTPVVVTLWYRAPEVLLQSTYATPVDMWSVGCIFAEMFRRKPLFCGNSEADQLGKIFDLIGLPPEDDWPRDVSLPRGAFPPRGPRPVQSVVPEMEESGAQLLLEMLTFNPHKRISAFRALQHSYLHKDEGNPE
T1 sequence (P11802 whole entry): as above
T1 sequence (P24385 whole entry, further chain): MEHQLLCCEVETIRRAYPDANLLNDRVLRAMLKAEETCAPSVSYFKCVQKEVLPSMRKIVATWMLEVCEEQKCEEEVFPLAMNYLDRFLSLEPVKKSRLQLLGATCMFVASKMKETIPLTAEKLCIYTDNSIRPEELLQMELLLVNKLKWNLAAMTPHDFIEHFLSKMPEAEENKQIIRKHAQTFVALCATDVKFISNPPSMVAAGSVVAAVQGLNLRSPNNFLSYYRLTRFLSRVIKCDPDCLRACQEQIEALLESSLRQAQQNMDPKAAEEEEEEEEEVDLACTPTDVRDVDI

Row | IC50 [1] [nM] | IC50 [2] [nM] | IC50 [3] [nM] | inhibition [4] [%] | inhibition [5] [%] | IC50 [7] [nM] | IC50 [8] [nM] | IC50 [10] [nM] | IC50 [12] [nM] | SMILES | Fold increase [6] | Fold increase [9] | also measured
1 | 2350 | 1080 | 33 | 95 | 37 | 9 | 670 | – | – | Cn1ccc2ccc3c4[nH]c5cc(O)ccc5c4c4c(c3c21)C(=O)NC4=O | 2.2 | – | –
2 | > 20000 | 1910 | 54 | – | – | 15 | 1630 | 177 | 1280 | Cn1ccc2ccc3c4[nH]c5c(CCN6CCOCC6)cccc5c4c4c(c3c21)C(=O)NC4=O | 1.5 | 2.2 | solubility at 168 h [11]: 8700 µg/mL (≈ 19.2 mM)
3 | 9140 | 2470 | 45 | 78 | 69 | – | 2120 | 62 | 1060 | Cn1ccc2ccc3c4[nH]c5c(CCN6CCCCC6)cccc5c4c4c(c3c21)C(=O)NC4=O | 1.8 | 2.1 | solubility at 168 h [11]: 8500 µg/mL (≈ 18.9 mM)
4 | – | – | – | – | – | – | – | – | – | Cl.Cn1ccc2ccc3c4[nH]c5c(CCN6CCOCC6)cccc5c4c4c(c3c21)C(=O)NC4=O | 1.2 | 2.3 | –
5 | 3380 | 2440 | 77 | 67 | 58 | 13 | 1960 | 3050 | 1000 | COc1ccc2c3c4c(c5c(ccc6ccn(C)c65)c3n(CCCN3CCC(C(N)=O)CC3)c2c1)C(=O)NC4=O | 1.9 | – | Fold increase [13]: 2.5
6 | – | 690 | 32 | 77 | 56 | 18 | 1900 | – | 67 | COc1cc2ccn(C)c2c2c3c(c4c5ccccc5[nH]c4c12)C(=O)NC3=O | 1.8 | 2.1 | –
7 | 18000 | 1050 | 63 | – | 67 | 23 | 890 | 1170 | 902 | COc1ccc2c3c4c(c5c(ccc6ccn(C)c65)c3n(CCN[C@H]3CC[C@H](O)CC3)c2c1)C(=O)NC4=O | – | 2 | Fold increase [14]: 2; solubility at 168 h [11]: 7800 µg/mL (≈ 15.3 mM); Solubility ([11]; buffer, 168 h): 7800 µg/mL (≈ 15.3 mM); inhibition [15]: 95%
8 | > 20000 | 1090 | 53 | 97 | 90 | 6 | 1800 | – | 112 | COc1ccc2c(c1)[nH]c1c3ccc4ccn(C)c4c3c3c(c21)C(=O)NC3=O | 2.6 | – | –
9 | 13200 | 710 | 54 | 86 | 71 | – | 1130 | – | – | COc1cc2c3[nH]c4ccccc4c3c3c(c2c2c1ccn2C)C(=O)NC3=O | 1.2 | 2.2 | IC50 [16]: 35 nM
10 | 1040 | 500 | 54 | 95 | 66 | 12 | 1620 | – | 113 | COc1ccc2c3c4c(c5c(ccc6ccn(C)c65)c3n(CCCO)c2c1)C(=O)NC4=O | 2.4 | – | –
11 | > 2000 | – | 82 | 92 | 60 | 75 | 1130 | – | 210 | Cn1ccc2ccc3c4[nH]c5c(CCO)cccc5c4c4c(c3c21)C(=O)NC4=O | – | – | Fold increase [17]: 2.7; Fold increase [18]: 1.4
12 | > 2000 | 1170 | 47 | 97 | 63 | 22 | 2110 | – | 75 | Cn1ccc2ccc3c4[nH]c5ccccc5c4c4c(c3c21)C(=O)NC4=O | – | – | Fold increase [19]: 1.4; Fold increase [20]: 2.5
13 | 3740 | 1310 | 35 | 92 | 71 | 21 | 1470 | 527 | 89 | COc1ccc2c3c4c(c5c(ccc6ccn(C)c65)c3n(CCNCCO)c2c1)C(=O)NC4=O | 3.1 | – | solubility at 168 h [11]: 6000 µg/mL (≈ 13.1 mM)
14 | 9810 | 2820 | 53 | 87 | 78 | 5 | 1230 | 49 | 450 | Cn1ccc2ccc3c4[nH]c5c(CCN[C@H]6CC[C@H](O)CC6)cccc5c4c4c(c3c21)C(=O)NC4=O | 2 | – | –
15 | 3150 | 1280 | 72 | 78 | 57 | 28 | 1550 | 732 | 432 | COc1ccc2c3c4c(c5c(ccc6ccn(C)c65)c3n(CCCNCCO)c2c1)C(=O)NC4=O | 1.8 | 2.7 | solubility at 168 h [11]: 8600 µg/mL (≈ 18.3 mM)
16 | – | – | – | – | – | – | – | – | – | Cn1ccc2ccc3c4[nH]c5c(CCN6CCC[C@H]6CO)cccc5c4c4c(c3c21)C(=O)NC4=O.O=C(O)C(F)(F)F | 1.5 | – | –
17 | 5890 | 1350 | 51 | 55 | 52 | 5 | 1000 | 25 | 796 | Cn1ccc2ccc3c4[nH]c5c(CCN6CCC(C(N)=O)CC6)cccc5c4c4c(c3c21)C(=O)NC4=O | 1.9 | 2.2 | –
